# According to ChEMBL document CHEMBL1201861, “Genomics of Drug Sensitity in Cancer screening data, Wellcome Trust Sanger Institute”:
# Experiments:
# Test in all cases: cells
# NOMO-1 = assay type: functional, cell-based; conditions: Homo sapiens;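 also: growth inhibition of human NOMO-1 cells measured by a cell viability assay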
# Description: SANGER: Inhibition of human NOMO-1 cell growth in a cell viability assay.
# AM-38 = assay type: functional, cell-based, Homo sapiens; conditions: Homo sapiens, AM-38;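 also: growth inhibition of AM-38 cells of human origin, read out by a cell viability assay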
# Description: SANGER: Inhibition of human AM-38 cell growth in a cell viability assay.
# KY821 = assay type: functional, cell-based; conditions: Homo sapiens;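 also: growth inhibition of human KY821 cells, read out by a cell viability assay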
# Description: SANGER: Inhibition of human KY821 cell growth in a cell viability assay.
# MKN-45 = assay type: functional, cell-based, Homo sapiens; conditions: Homo sapiens, MKN-45;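 also: growth inhibition of human MKN-45 cells, measured with a cell viability assay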
# Description: SANGER: Inhibition of human MKN45 cell growth in a cell viability assay.
# KG-1 = assay type: functional, cell-based; conditions: Homo sapiens;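 also: growth inhibition of KG-1 cells, read out by a cell viability assay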
# Description: SANGER: Inhibition of human KG-1 cell growth in a cell viability assay.
# Capan-2 = assay type: functional, cell-based, Homo sapiens; conditions: Homo sapiens, Capan-2;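 also: Capan-2 cell growth inhibition, read out with a viability assay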
# Description: SANGER: Inhibition of human Capan-2 cell growth in a cell viability assay.
# NCI-H2170 = assay type: functional, cell-based, Homo sapiens; conditions: Homo sapiens, NCI-H2170;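 also: cell viability assay measuring growth inhibition of human NCI-H2170 cancer cells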
# Description: SANGER: Inhibition of human NCI-H2170 cell growth in a cell viability assay.
# A 172 = assay type: functional, cell-based, Homo sapiens; conditions: Homo sapiens, A 172;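 also: growth inhibition of A172 cells, measured with a cell viability readout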
# Description: SANGER: Inhibition of human A172 cell growth in a cell viability assay.
# KS-1 = assay type: functional, cell-based, Homo sapiens; conditions: Homo sapiens, KS-1;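 also: growth inhibition of KS-1 cells, read out with a cell viability assay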
# Description: SANGER: Inhibition of human KS-1 cell growth in a cell viability assay.
# KGN = assay type: functional, cell-based, Homo sapiens; conditions: Homo sapiens, KGN;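 also: growth inhibition of KGN cells, read out with a cell viability assay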
# Description: SANGER: Inhibition of human KGN cell growth in a cell viability assay.
# MDA-MB-361 = assay type: functional, cell-based, Homo sapiens; conditions: Homo sapiens, MDA-MB-361
# SAS = assay type: functional, cell-based, Homo sapiens; conditions: Homo sapiens, SAS;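 also: growth inhibition of SAS cells, read out with a cell viability assay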
# Description: SANGER: Inhibition of human SAS cell growth in a cell viability assay.
# T47D = assay type: functional, cell-based, Homo sapiens; conditions: Homo sapiens, T47D;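 also: growth inhibition of human T47D cells, measured with a cell viability assay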
# Description: SANGER: Inhibition of human T47D cell growth in a cell viability assay.
# SCC-25 = assay type: functional, cell-based, Homo sapiens; conditions: Homo sapiens, SCC-25;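 also: growth inhibition of SCC-25 cells, measured with a cell viability assay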
# Description: SANGER: Inhibition of human SCC-25 cell growth in a cell viability assay.
# NKM-1 = assay type: functional, cell-based; conditions: Homo sapiens;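 also: growth inhibition of NKM-1 cells, read out with a cell viability assay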
# Description: SANGER: Inhibition of human NKM-1 cell growth in a cell viability assay.
# P12-Ichikawa = assay type: functional, cell-based; conditions: Homo sapiens
# RXF 393 = assay type: functional, cell-based; conditions: Homo sapiens;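 also: growth inhibition of human RXF 393 cells, read out with a cell viability assay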
# Description: SANGER: Inhibition of human RXF393 cell growth in a cell viability assay.
# PC-14 = assay type: functional, cell-based, Homo sapiens; conditions: Homo sapiens, PC-14;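 also: cell viability assay measuring inhibition of PC-14 cell growth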
# Description: SANGER: Inhibition of human PC-14 cell growth in a cell viability assay.
# RH-1 = assay type: functional, cell-based, Homo sapiens; conditions: Homo sapiens, RH-1;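 also: growth inhibition of human RH-1 cells, read out with a cell viability assay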
# Description: SANGER: Inhibition of human RH-1 cell growth in a cell viability assay.
# NCI-H23 = assay type: functional, cell-based, Homo sapiens; conditions: Homo sapiens, NCI-H23;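 also: cell viability assay measuring growth inhibition of NCI-H23 cells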
# Description: SANGER: Inhibition of human NCI-H23 cell growth in a cell viability assay.
# ES5 = assay type: functional, cell-based, Homo sapiens; conditions: Homo sapiens, ES5;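 also: growth inhibition of human ES5 cells, read out by a cell viability assay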
# Description: SANGER: Inhibition of human ES5 cell growth in a cell viability assay.
# KE-37 = assay type: functional, cell-based; conditions: Homo sapiens;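 also: growth inhibition of KE-37 cells, read out with a cell viability assay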
# Description: SANGER: Inhibition of human KE-37 cell growth in a cell viability assay.
# SW780 = assay type: functional, cell-based, Homo sapiens; conditions: Homo sapiens, SW780;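 also: growth inhibition of the cells, read out with a cell viability assay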
# Description: SANGER: Inhibition of human SW780 cell growth in a cell viability assay.
# BHY = assay type: functional, cell-based, Homo sapiens; conditions: Homo sapiens, BHY;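 also: cell growth inhibition read out by a viability assay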
# Description: SANGER: Inhibition of human BHY cell growth in a cell viability assay.
# BHT-101 = assay type: functional, cell-based, Homo sapiens; conditions: Homo sapiens, BHT-101
# Description: SANGER: Inhibition of human BHT-101 cell growth in a cell viability assay.
# VMRC-RCZ = assay type: functional, cell-based; conditions: Homo sapiens;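 also: growth inhibition measured with a cell viability assay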
# Description: SANGER: Inhibition of human VMRC-RCZ cell growth in a cell viability assay.
# MZ7-mel = assay type: functional, cell-based, Homo sapiens; conditions: Homo sapiens, MZ7-mel;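 also: growth inhibition of human MZ7-mel cells, measured by a cell viability assay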
# Description: SANGER: Inhibition of human MZ7-mel cell growth in a cell viability assay.
# TE-10 = assay type: functional, cell-based, Homo sapiens; conditions: Homo sapiens, TE-10;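 also: growth inhibition of TE-10 cells, measured by a cell viability assay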
# Description: SANGER: Inhibition of human TE-10 cell growth in a cell viability assay.
# RKO = assay type: functional, cell-based, Homo sapiens; conditions: Homo sapiens, RKO;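 also: growth inhibition of human RKO cells, read out with a cell viability assay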
# Description: SANGER: Inhibition of human RKO cell growth in a cell viability assay.
# NCI-H747 = assay type: functional, cell-based; conditions: Homo sapiens;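 also: growth inhibition of human NCI-H747 cells, read out by a cell viability assay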
# Description: SANGER: Inhibition of human NCI-H747 cell growth in a cell viability assay.
# KALS-1 = assay type: functional, cell-based, Homo sapiens; conditions: Homo sapiens, KALS-1;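 also: growth inhibition of KALS-1 cells, determined with a cell viability assay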
# Description: SANGER: Inhibition of human KALS-1 cell growth in a cell viability assay.
# LB771-HNC = assay type: functional, cell-based, Homo sapiens; conditions: Homo sapiens, LB771-HNC;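 also: growth inhibition of LB771-HNC human cells, read out with a cell viability assay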
# Description: SANGER: Inhibition of human LB771-HNC cell growth in a cell viability assay.
# Detroit 562 = assay type: functional, cell-based, Homo sapiens; conditions: Homo sapiens, Detroit 562;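 also: growth inhibition of human Detroit 562 cells, read out by a cell viability assay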
# Description: SANGER: Inhibition of human Detroit562 cell growth in a cell viability assay.
# RT-112 = assay type: functional, cell-based, Homo sapiens; conditions: Homo sapiens, RT-112
# Description: SANGER: Inhibition of human RT-112 cell growth in a cell viability assay.
# SF-268 = assay type: functional, cell-based, Homo sapiens; conditions: Homo sapiens, SF-268;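 also: growth inhibition of SF-268 cells determined with a cell viability assay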
# Description: SANGER: Inhibition of human SF268 cell growth in a cell viability assay.
# KOSC-2 = assay type: functional, cell-based, Homo sapiens; conditions: Homo sapiens, KOSC-2;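 also: growth inhibition of KOSC-2 cells, read out by a cell viability assay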
# Description: SANGER: Inhibition of human KOSC-2 cell growth in a cell viability assay.
# GAK = assay type: functional, cell-based, Homo sapiens; conditions: Homo sapiens, GAK;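 also: cell growth inhibition read out by a cell viability assay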
# Description: SANGER: Inhibition of human GAK cell growth in a cell viability assay.
# ONS-76 = assay type: functional, cell-based, Homo sapiens; conditions: Homo sapiens, ONS-76;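 also: growth inhibition of human ONS-76 cells, read out with a cell viability assay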
# Description: SANGER: Inhibition of human ONS-76 cell growth in a cell viability assay.
# K5 = assay type: functional, cell-based, Homo sapiens; conditions: Homo sapiens, K5
# Description: SANGER: Inhibition of human K5 cell growth in a cell viability assay.
# MKN-28 = assay type: functional, cell-based, Homo sapiens; conditions: Homo sapiens, MKN-28;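 also: cell viability assay read-out, IC50 reflects suppression of growth of human MKN-28 cells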
# Description: SANGER: Inhibition of human MKN28 cell growth in a cell viability assay.
# LNCaP-Clone-FGC = assay type: functional, cell-based, Homo sapiens; conditions: Homo sapiens, LNCaP-Clone-FGC
# Description: SANGER: Inhibition of human LNCaP-Clone-FGC cell growth in a cell viability assay.
# ES3 = assay type: functional, cell-based, Homo sapiens; conditions: Homo sapiens, ES3;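 also: growth inhibition of ES3 cells, read out with a cell viability assay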
# Description: SANGER: Inhibition of human ES3 cell growth in a cell viability assay.
# RPMI-7951 = assay type: functional, cell-based, Homo sapiens; conditions: Homo sapiens, RPMI-7951
# Description: SANGER: Inhibition of human RPMI-7951 cell growth in a cell viability assay.
# CAS-1 = assay type: functional, cell-based, Homo sapiens; conditions: Homo sapiens, CAS-1;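 also: growth inhibition of CAS-1 cells, measured with a cell viability assay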
# Description: SANGER: Inhibition of human CAS-1 cell growth in a cell viability assay.
# FTC-133 = assay type: functional, cell-based, Homo sapiens; conditions: Homo sapiens, FTC-133
# COLO-678 = assay type: functional, cell-based, Homo sapiens; conditions: Homo sapiens, COLO-678
# Description: SANGER: Inhibition of human COLO-678 cell growth in a cell viability assay.
# SCC-9 = assay type: functional, cell-based, Homo sapiens; conditions: Homo sapiens, SCC-9;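 also: Read-out is a cell viability assay, with values giving inhibition of cell growth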
# Description: SANGER: Inhibition of human SCC-9 cell growth in a cell viability assay.
# NCI-H510A = assay type: functional, cell-based; conditions: Homo sapiens;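 also: growth inhibition of NCI-H510A cells, read out with a cell viability assay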
# Description: SANGER: Inhibition of human NCI-H510A cell growth in a cell viability assay.
# CAL-85-1 = assay type: functional, cell-based; conditions: Homo sapiens;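 also: growth inhibition of human CAL-85-1 cells, read out with a cell viability assay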
# Description: SANGER: Inhibition of human CAL-85-1 cell growth in a cell viability assay.
# MDA-MB-453 = assay type: functional, cell-based, Homo sapiens; conditions: Homo sapiens, MDA-MB-453
# Description: SANGER: Inhibition of human MDA-MB-453 cell growth in a cell viability assay.
# LS-123 = assay type: functional, cell-based, Homo sapiens; conditions: Homo sapiens, LS-123
# Description: SANGER: Inhibition of human LS-123 cell growth in a cell viability assay.
# JAR = assay type: functional, cell-based, Homo sapiens; conditions: Homo sapiens, JAR;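 also: growth inhibition of human JAR cells determined with a cell viability assay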
# Description: SANGER: Inhibition of human JAR cell growth in a cell viability assay.
structure (smiles),measurement,setting,value
COC(=O)CNC(=O)C(=O)OC,IC50,NOMO-1,154 µM
same,IC50,AM-38,668 µM
same,IC50,KY821,> 4000 µM
same,IC50,MKN-45,> 4000 µM
same,IC50,KG-1,81.6 µM
same,IC50,Capan-2,338 µM
same,IC50,NCI-H2170,> 4000 µM
same,IC50,A 172,566 µM
same,IC50,KS-1,11.3 µM
same,IC50,KGN,62.8 µM
same,IC50,MDA-MB-361,1690 µM
same,IC50,SAS,237 µM
same,IC50,T47D,> 4000 µM
same,IC50,SCC-25,1230 µM
same,IC50,NKM-1,126 µM
same,IC50,P12-Ichikawa,62 µM
same,IC50,RXF 393,1260 µM
same,IC50,PC-14,> 4000 µM
same,IC50,RH-1,1360 µM
same,IC50,NCI-H23,2950 µM
same,IC50,ES5,> 4000 µM
same,IC50,KE-37,43.3 µM
same,IC50,SW780,133 µM
same,IC50,BHY,465 µM
same,IC50,BHT-101,> 4000 µM
same,IC50,VMRC-RCZ,1960 µM
same,IC50,MZ7-mel,171 µM
same,IC50,TE-10,629 µM
same,IC50,RKO,2460 µM
same,IC50,NCI-H747,> 4000 µM
same,IC50,KALS-1,624 µM
same,IC50,LB771-HNC,412 µM
same,IC50,Detroit 562,507 µM
same,IC50,RT-112,176 µM
same,IC50,SF-268,414 µM
same,IC50,KOSC-2,> 4000 µM
same,IC50,GAK,774 µM
same,IC50,ONS-76,241 µM
same,IC50,K5,160 µM
same,IC50,MKN-28,1120 µM
same,IC50,LNCaP-Clone-FGC,3210 µM
same,IC50,ES3,701 µM
same,IC50,RPMI-7951,322 µM
same,IC50,CAS-1,264 µM
same,IC50,FTC-133,> 4000 µM
same,IC50,COLO-678,2000 µM
same,IC50,SCC-9,122 µM
same,IC50,NCI-H510A,237 µM
same,IC50,CAL-85-1,108 µM
same,IC50,MDA-MB-453,> 4000 µM
same,IC50,LS-123,> 4000 µM
CN(Cc1cnc2nc(N)nc(N)c2n1)c1ccc(C(=O)N[C@@H](CCC(=O)O)C(=O)O)cc1 [METHOTREXATE],IC50,NOMO-1,0.0162 µM
same,IC50,AM-38,> 0.2 µM
same,IC50,MKN-45,> 0.2 µM
same,IC50,KG-1,> 0.2 µM
same,IC50,Capan-2,> 0.2 µM
same,IC50,NCI-H2170,> 0.2 µM
same,IC50,A 172,> 0.2 µM
same,IC50,KS-1,> 0.2 µM
same,IC50,KGN,0.15 µM
same,IC50,MDA-MB-361,> 0.2 µM
same,IC50,SAS,> 0.2 µM
same,IC50,T47D,> 0.2 µM
same,IC50,SCC-25,> 0.2 µM
same,IC50,NKM-1,0.0077 µM
same,IC50,P12-Ichikawa,0.0413 µM
same,IC50,RXF 393,> 0.2 µM
same,IC50,PC-14,> 0.2 µM
same,IC50,RH-1,> 0.2 µM
same,IC50,NCI-H23,> 0.2 µM
same,IC50,ES5,> 0.2 µM
same,IC50,KE-37,0.0155 µM
same,IC50,SW780,0.116 µM
same,IC50,BHY,> 0.2 µM
same,IC50,BHT-101,> 0.2 µM
same,IC50,VMRC-RCZ,> 0.2 µM
same,IC50,MZ7-mel,> 0.2 µM
same,IC50,TE-10,> 0.2 µM
same,IC50,RKO,> 0.2 µM
same,IC50,NCI-H747,> 0.2 µM
same,IC50,KALS-1,> 0.2 µM
same,IC50,LB771-HNC,> 0.2 µM
same,IC50,Detroit 562,> 0.2 µM
same,IC50,RT-112,0.142 µM
same,IC50,SF-268,> 0.2 µM
same,IC50,KOSC-2,> 0.2 µM
same,IC50,GAK,> 0.2 µM
same,IC50,ONS-76,0.0638 µM
same,IC50,K5,0.0598 µM
same,IC50,MKN-28,> 0.2 µM
same,IC50,LNCaP-Clone-FGC,> 0.2 µM
same,IC50,ES3,> 0.2 µM
same,IC50,RPMI-7951,> 0.2 µM
same,IC50,JAR,0.188 µM
same,IC50,CAS-1,> 0.2 µM
same,IC50,FTC-133,> 0.2 µM
same,IC50,COLO-678,> 0.2 µM
same,IC50,SCC-9,> 0.2 µM
same,IC50,NCI-H510A,> 0.2 µM
same,IC50,CAL-85-1,> 0.2 µM
same,IC50,MDA-MB-453,> 0.2 µM
same,IC50,LS-123,> 0.2 µM
